Test results taken from PubChem BioAssay (NCI).
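Test compounds were applied to cells in 96-well plates for 48 hours at 5 doses. Here, GI50 denotes the concentration required for 50% inhibition of growth. TGI is the concentration that stops growth completely.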

Columns and labels:
Assay in all cases: growth of human tumour cells (NCI), 48 h
SW-620 colon = tested on: SW-620 colon
HCT-15 colon = tested on: HCT-15 colon
786-0 renal = tested on: 786-0 renal
MOLT-4 leukemia = tested on: MOLT-4 leukemia
IGROV1 ovarian = tested on: IGROV1 ovarian
KM12 colon = tested on: KM12 colon
SN12C renal = tested on: SN12C renal
OVCAR-8 ovarian = tested on: OVCAR-8 ovarian
CAKI-1 renal = tested on: CAKI-1 renal

Row | Structure (SMILES) | GI50 (SW-620 colon) | TGI (SW-620 colon) | GI50 (HCT-15 colon) | TGI (HCT-15 colon) | GI50 (786-0 renal) | TGI (786-0 renal) | TGI (MOLT-4 leukemia) | TGI (IGROV1 ovarian) | TGI (KM12 colon) | TGI (SN12C renal) | TGI (OVCAR-8 ovarian) | TGI (CAKI-1 renal)
1 | Cn1cc(-c2csc(-c3cn(CCCCN4CCCCC4)c4ccccc34)n2)c2cccnc21 | 1.72 µM | 3.25 µM | 1.53 µM | 2.9 µM | 1.64 µM | 3.05 µM |  |  |  |  |  | 
2 | O=[N+]([O-])c1cccc(C2=NOC(C3CCCCC3)C2)c1 (stereo unspecified) |  | > 100 µM |  | > 100 µM |  | > 100 µM | > 100 µM | > 100 µM | > 100 µM | > 100 µM | > 100 µM | 
3 | COc1c(C)n(CCO)ccc1=O |  | > 100 µM |  | > 100 µM |  | > 100 µM | > 100 µM |  | > 100 µM | > 100 µM | > 100 µM | > 100 µM
4 | CCOC(=O)NC(=O)c1cn(C(CC)COC(=O)NCCCCCCNC(=O)OCC(CC)n2cc(C(=O)NC(=O)OCC)c(=O)[nH]c2=O)c(=O)[nH]c1=O (stereo unspecified) |  | > 100 µM |  | > 100 µM |  | > 100 µM | > 100 µM | > 100 µM | > 100 µM | > 100 µM | > 100 µM | > 100 µM
5 | Nc1nc(-c2ccc(Cl)c([N+](=O)[O-])c2)cs1 |  | > 100 µM |  | > 100 µM |  | > 100 µM | > 100 µM | > 100 µM | > 100 µM | > 100 µM | > 100 µM | > 100 µM
6 | COC(=O)C(=O)C(C(C)=O)C(=O)NCc1ccc(OC)c(OC)c1 (stereo unspecified) |  | > 100 µM |  | > 100 µM |  | > 100 µM | > 100 µM | > 100 µM | > 100 µM | > 100 µM | > 100 µM | > 100 µM
7 | O=c1[nH]cnc(NC2C=C(CO)C(O)C2O)c1[N+](=O)[O-] (stereo unspecified) |  | > 62 µM |  | > 54.7 µM |  | > 64.3 µM | > 100 µM | > 100 µM | > 100 µM | > 100 µM | > 100 µM | > 100 µM
8 | Cc1ccc(C)c(N2C/C(=N\NC(=O)CC#N)C(c3nc4ccccc4s3)C(=O)C2=O)c1 (stereo unspecified) |  | > 100 µM |  | > 100 µM |  | > 100 µM | > 100 µM | > 100 µM | > 100 µM | > 100 µM | > 100 µM | > 100 µM
9 | Cn1c(=O)nc2n(-c3cc(C(F)(F)F)cc(C(F)(F)F)c3)c3ccccc3nc-2c1=O |  | > 100 µM |  | > 100 µM |  | > 100 µM | > 100 µM | > 100 µM | > 100 µM | > 100 µM | > 100 µM | > 100 µM
10 | CC(C(=O)c1ccc(Cl)cc1)/C(=N/NC(=O)NN)C(=O)Nc1cccc(C(F)(F)F)c1 (stereo unspecified) |  | > 100 µM |  | > 100 µM |  | > 100 µM | > 100 µM | > 100 µM |  | > 100 µM | > 100 µM | > 100 µM
11 | Nc1c(-c2ccccc2-c2c(N)[n+]([O-])c3ccccc3[n+]2[O-])[n+]([O-])c2ccccc2[n+]1[O-] |  | > 100 µM |  | > 100 µM |  | > 100 µM | 8.42 µM |  | 50.2 µM | > 100 µM | 81.5 µM | > 100 µM
12 | CC1=C(C#N)C(=O)CC(c2ccc(Cl)cc2)N(C)N1 (stereo unspecified) |  | > 100 µM |  | > 100 µM |  | > 100 µM | > 100 µM |  | > 100 µM | > 100 µM |  | > 100 µM
13 | CC(=O)N1CCN(c2ccc(OCC3COC(Cn4ccnc4)(c4ccc(Cl)cc4Cl)O3)cc2)CC1 (stereo unspecified) |  | > 100 µM |  | > 100 µM |  | > 100 µM | > 100 µM | > 100 µM | > 100 µM | > 100 µM | > 100 µM | > 100 µM
14 | COc1ccc(-c2oc(/C=N/NC(N)=S)c([N+](=O)[O-])c2-c2ccc(OC)c(OC)c2)cc1OC |  | > 100 µM |  | > 100 µM |  | > 100 µM |  | > 100 µM |  | > 100 µM | 81.8 µM | > 100 µM
15 | CCN1c2ccccc2-c2c3c1cc(C)cc3c1ccccc1[n+]2CC |  | 6.63 µM |  | 22.6 µM |  | 4.22 µM | 3.41 µM |  | 1.41 µM | 3.35 µM | 1.86 µM | 5.88 µM
16 | CN(C(=O)c1ccc([N+](=O)[O-])cc1)c1ccccc1 |  | > 100 µM |  | > 100 µM |  | > 100 µM | > 100 µM | > 100 µM | > 100 µM | > 100 µM | > 100 µM | > 100 µM
17 | Cc1cccc(C2=C/C(=C(\SS/C(C(=O)c3ccc(OCC(=O)O)c(Cl)c3Cl)=C3\C=C(c4cccc(C)c4)SS3)C(=O)c3ccc(OCC(=O)O)c(Cl)c3Cl)SS2)c1 |  | 49.8 µM |  | > 51.6 µM |  | 41.7 µM | 40.2 µM | 44.8 µM | 52.9 µM | 65.1 µM | > 73.6 µM | 66.3 µM
